Here are results for six compounds from patent publication US10525055B2, “Opioid receptor antagonist prodrugs” (Nirsum Laboratories, Inc., priority 2017, dated 2020).

Data set [1] can be described thus: Plasma stability assay, rat plasma. Particulars: 37° C., 10 μM. The format is in vitro ADME.
A short description of data set [2]: Solubility determination in oil (cottonseed oil, sesame oil). To be noted: heating temp. 60 °C, obs. temp. 25 °C. Here is the method: A known amount of test substance (˜40 mg) was weighed into the vial, 100 μL of oil was added and heated to 60° C. and then system was slurried to reach equilibrium. […] Extra oil was added into the vial once compound precipitated out and then the system was re-equilibrated at 1000 rpm at room temperature (25° C.). Final concentration was determined by HPLC method as described below in Table 6a and 6b.

For a further data set, the target named is T1, DOR (Homo sapiens, UniProt P41143).
T1 construct: expressed in transfected cells; membranes prepared from them
T1 sequence (P41143 whole entry): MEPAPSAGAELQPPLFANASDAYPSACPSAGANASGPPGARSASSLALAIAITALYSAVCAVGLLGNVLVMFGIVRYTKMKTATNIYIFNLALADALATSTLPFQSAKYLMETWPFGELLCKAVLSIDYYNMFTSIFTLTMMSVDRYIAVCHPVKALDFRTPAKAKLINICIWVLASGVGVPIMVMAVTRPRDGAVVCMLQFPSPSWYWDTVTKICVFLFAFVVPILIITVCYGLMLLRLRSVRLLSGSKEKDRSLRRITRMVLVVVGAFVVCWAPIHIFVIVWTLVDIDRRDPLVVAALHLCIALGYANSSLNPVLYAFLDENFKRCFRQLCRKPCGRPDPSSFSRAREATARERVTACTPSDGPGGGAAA
Description: Opioid receptor binding assay, DOR ([3H]-DADLE). To be noted: DOR, MaxDose 10000 nM.

The next data set concerns the target T2, KOR (Homo sapiens, UniProt P41145).
T2 construct: expressed in transfected cells; membranes prepared from them
As to the kind of experiment: Opioid receptor binding assay, KOR ([3H]Diprenorphine). To be noted: KOR, MaxDose 10000 nM.

The target in another data set is T3, MOR (Homo sapiens, UniProt P35372).
T3 construct: expressed in transfected cells; membranes prepared from them
T3 sequence (P35372 whole entry): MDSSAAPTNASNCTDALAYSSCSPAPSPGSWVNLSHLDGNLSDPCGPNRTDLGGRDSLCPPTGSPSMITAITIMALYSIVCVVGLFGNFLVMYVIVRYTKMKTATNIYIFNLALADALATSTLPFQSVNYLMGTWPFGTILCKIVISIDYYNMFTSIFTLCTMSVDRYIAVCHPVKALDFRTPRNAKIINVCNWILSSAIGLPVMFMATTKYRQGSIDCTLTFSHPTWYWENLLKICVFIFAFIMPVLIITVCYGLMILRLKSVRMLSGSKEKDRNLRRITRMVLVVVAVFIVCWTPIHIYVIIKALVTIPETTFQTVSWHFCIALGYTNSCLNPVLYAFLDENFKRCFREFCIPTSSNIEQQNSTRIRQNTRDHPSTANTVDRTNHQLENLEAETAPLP
Description: Opioid receptor binding assay, MOR ([3H]DAMGO). Particulars: MOR, MaxDose 10000 nM.

The nature of data set [3]: Physical characterization of solid state drug substance (PLM, XRPD, DSC, TGA). The class given is physicochemical. Here is the method: The analysis of the physical characteristics of drug substances that were in a solid state was conducted using polarized light microscopy (PLM), X-ray powder diffractometer (XRPD) assessment, Differential Scanning calorimetry (DSC) and Thermal Gravimetric Analysis (TGA). For PLM, samples were dispersed in immersion oil and were observed using an ocular lens (10×) and objective lens (20×) under crossed polarizers. For XRPD, samples were run on a diffractometer using the following method: Tube—Cu: K-alpha (λ=1.54179 Å); Generator—Voltage 40 kV, Current 40 mA; Scan scope—3 to 40°; sample rotation speed—15 rpm; scanning rate—10 deg/min. For DSC, ˜1 mg of sample was tested using a crimped aluminum pan and covered by a lid with a hole, heated from room temperature to 300° C. at a speed of 10° C./minute. For TGA, 2-5 mg of sample was placed in an open platinum pan and heated from room temperature to 300° C. at a rate of 10° C./minute.

The nature of data set [4]: Polymorph screening of solid state drug substances. Particulars: for XRPD results (Dried): stirred 50 °C 72 hours, solids dried; for Visual observation 50° C. / Visual observation RT: target conc. 100 mg/ml.
The nature of data set [5]: Dog pharmacokinetic studies, deep intramuscular. The format is in vivo, Beagle dogs. Particulars: dog IM, Cottonseed + 1% Benzyl Alcohol. The procedure:
The purpose of this study is to determine the pharmacokinetics of test compounds in plasma, following deep intramuscular administration to Beagle dogs (n=3, unless otherwise specified).
The dose formulation (concentration−400 mg base equivalents/ml in sesame oil+1% benzyl alcohol, unless otherwise specified) was administered via deep intramuscularly (unless otherwise specified). The injection vehicle was also dosed via deep intramuscular route (unless otherwise specified) on contralateral site of each animal at study initiation. The animals were sedated with Propofol at 6 mg/kg via IV administration. Following sedation hair was carefully removed from around the injection site and the area gently cleaned. Care will be taken to avoid irritating skin during shaving and cleaning the injection site. Then dogs will be dosed with deep IM administration. At least 2.5 cm depth from the surface into the central aspect of the quadriceps or biceps femoris muscle, by angling the needle toward the femur. If the needle hits the femur, simply draws back slightly and then inject. The dose volume will be determined by the animals' body weight collected on the morning of dosing day. For repeated administration, the injection sites may be rotated to minimize tissue injury.
Blood samples were collected from a peripheral vessel from restrained, non-sedated animals per sampling time point.
Approximately 0.8 mL blood will be collected at each time point.
Each collected blood sample was centrifuged for 4 minutes at 4° C. and 10000 rpm for plasma collection. Plasma was collected and transferred into a pre-labeled PP tube in dry ice at each time point and precipitated immediately using ACN at a ratio of 1:4 (plasma:ACN). Centrifuged again (10 minutes, 12000 rpm) and obtain the supernatant.
After terminal collection, all supernatant was stored at approximately −80° C. F until bioanalysis.
LC-MS/MS methods for the quantitative determination of test compound in biological matrix were developed. […] The sample analysis was performed concurrently with a set of calibration standards and two sets of QC samples using the LC-MS/MS method.
Plasma concentration versus time data was analyzed by non-compartmental approaches using the Phoenix WinNonlin 6.3 software program. Cmax, Tmax, T1/2, AUC(0-t), AUC(0-inf), MRT(0-t), MRT(0-inf) and graphs of plasma concentration versus time profile were prepared.

SMILES strings stand for the structures.

T2 sequence (P41145 whole entry): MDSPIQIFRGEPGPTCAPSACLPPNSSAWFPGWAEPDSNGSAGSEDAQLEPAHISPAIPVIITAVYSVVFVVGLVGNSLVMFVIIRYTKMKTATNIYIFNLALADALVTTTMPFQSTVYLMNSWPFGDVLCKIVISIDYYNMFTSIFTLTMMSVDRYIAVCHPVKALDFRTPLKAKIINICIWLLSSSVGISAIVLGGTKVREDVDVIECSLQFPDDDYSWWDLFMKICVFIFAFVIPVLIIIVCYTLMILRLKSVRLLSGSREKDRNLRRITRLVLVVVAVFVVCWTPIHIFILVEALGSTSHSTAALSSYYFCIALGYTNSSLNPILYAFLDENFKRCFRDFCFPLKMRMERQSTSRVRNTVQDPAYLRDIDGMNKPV

In the case of `CCCCCCCCOC(=O)Oc1ccc2c3c1O[C@H]1C(=O)CC[C@@]4(O)C(C2)N(CC2CC2)CC[C@]314` [Compound 23, (4aS,7aR,12bS)-3-(cyclopropylmethyl)-4a-hydroxy-7-oxo-2,3,4,4a,5,6,7,7a-octahydro-1H-4,12-methanobenzofuro[3,2-e]isoquinolin-9-yl octyl carbonate], in data set [1], the “% remaining at time point in minutes, 0 min” value amounted to 10%; the “% remaining at time point in minutes, 15 min” value (“% remaining … 15 min” for short) is on record as 0%; the “% remaining at time point in minutes, 120 min” value (“% remaining … 120 min” below) is 0%; the “% remaining at time point in minutes, 480 min” value (“% remaining … 480 min” below) is 0%. Besides, the “% remaining at time point in minutes, 1440 min” value (“% remaining … 1440 min” below) in data set [1] was 0%. In addition, the “Approximate Solubility (mg/mL) in Excipient: Cottonseed oil” value in data set [2] (Cottonseed oil) is reported as greater than 407.7 mg/mL. Further, in data set [2], the “Approximate Solubility (mg/mL) in Excipient: Sesame oil” value is reported as greater than 423.9 mg/mL. For the same compound, on DOR, the “%Inh@MaxDose” value came out at 95.6%. Further, at KOR, the “%Inh@MaxDose” value came out at 101.6%. Moreover, the “%Inh@MaxDose” value at MOR was 98.7%.

As to `C=C1CC[C@@]2(O)C3Cc4ccc(OCOC(=O)OCCCCCCCCCCCCCC)c5c4[C@@]2(CCN3CC2CC2)[C@H]1O5` [Compound 25, (((4aS,7aS,12bS)-3-(cyclopropylmethyl)-4a-hydroxy-7-methylene-2,3,4,4a,5,6,7,7a-octahydro-1H-4,12-methanobenzofuro[3,2-e]isoquinolin-9-yl)oxy)methyl tetradecyl carbonate], in data set [1], the “% remaining at time point in minutes, 0 min” value was 100%; the “% remaining … 15 min” value was found to be 82.6%; the “% remaining … 120 min” value is reported as 69.3%; the “% remaining … 480 min” value stood at 62.2%. The “% remaining … 1440 min” value in data set [1] is given as 51.7%. For the same compound, on DOR, the “%Inh@MaxDose” value is reported as 62%. Further, the “%Inh@MaxDose” value on KOR is reported as 76.9%. For the same compound, the “%Inh@MaxDose” value on MOR is 87.3%.

On to `C=C1CC[C@@]2(O)C3Cc4ccc(OC(=O)OCCCCCCCCCCCCC)c5c4[C@@]2(CCN3CC2CC2)[C@H]1O5` [Compound 30, (4aS,7aS,12bS)-3-(cyclopropylmethyl)-4a-hydroxy-7-methylene-2,3,4,4a,5,6,7,7a-octahydro-1H-4,12-methanobenzofuro[3,2-e]isoquinolin-9-yl tridecyl carbonate], for which, in data set [1], the “% remaining at time point in minutes, 0 min” value worked out at 100%; the “% remaining … 15 min” value amounted to 65.7%; the “% remaining … 120 min” value came out at 40.3%; the “% remaining … 480 min” value worked out at 30.5%. Further, in data set [1], the “% remaining … 1440 min” value is on record as 22.2%. The “Approximate Solubility (mg/mL) in Excipient: Sesame oil” value in data set [2] lay in the range of 252.55 to 398.6 mg/mL. Moreover, the “%Inh@MaxDose” value on DOR turned out to be 84.3%. In addition, on KOR, the “%Inh@MaxDose” value came to 97.6%. Moreover, the “%Inh@MaxDose” value on MOR amounted to 82.5%.

Take `C=C1CC[C@@]2(O)C3Cc4ccc(OC(=O)NC(C)(C)C)c5c4[C@@]2(CCN3CC2CC2)[C@H]1O5` [Compound 40, (4aS,7aS,12bS)-3-(cyclopropylmethyl)-4a-hydroxy-7-methylene-2,3,4,4a,5,6,7,7a-octahydro-1H-4,12-methanobenzofuro[3,2-e]isoquinolin-9-yl tert-butylcarbamate]: the “X-ray Powder Diffraction” value in data set [3] (solid state drug substance, XRPD/PLM) is listed as “Crystal form with partial”. In addition, the “XRPD results (Dried)” value is “Amorphous” in data set [4] (Acetone); “Pattern A” in data set [4] (EtOAc); “Pattern A” in data set [4] (Heptane); “Amorphous” in data set [4] (Isopropanol); “Amorphous” in data set [4] (MTBE). For the same compound, the “Visual observation 50° C.” value is listed as “Clear” in data set [4] (Acetone); “Clear” in data set [4] (EtOAc); “Slurry” in data set [4] (Heptane); “Clear” in data set [4] (Isopropanol); “Clear” in data set [4] (MTBE). Also, the “Visual observation RT” value is listed as “Slurry” in data set [4] (Acetone); “Slurry” in data set [4] (EtOAc); “Slurry” in data set [4] (Heptane); “Slurry” in data set [4] (Isopropanol); “Clear” in data set [4] (MTBE). In addition, in data set [4] (polymorph screen over Heptane, MTBE, Isopropanol, EtOAc, Acetone), the “Comment: stability of initial crystal form (pattern A)” value is “stable form. Same crystal form”.

`C=C1CC[C@@]2(O)C3Cc4ccc(OCOC(=O)CCCCCCCCCCCCC)c5c4[C@@]2(CCN3CC2CC2)[C@H]1O5` [Compound 45, (((4aS,7aS,12bS)-3-(cyclopropylmethyl)-4a-hydroxy-7-methylene-2,3,4,4a,5,6,7,7a-octahydro-1H-4,12-methanobenzofuro[3,2-e]isoquinolin-9-yl)oxy)methyl tetradecanoate]: the “%Inh@MaxDose” value on DOR is on record as 71.8%; at KOR, 100.1%; on MOR it was 93.7%. Moreover, the “AUC0-inf (ng · h/mL) prodrug” value in data set [5] (30 mg/kg) came to 100 ng·h/mL; in data set [5] (48 mg/kg) it was 267 ng·h/mL. Moreover, the “Half-life t1/2 (hour) prodrug” value in data set [5] (30 mg/kg) came out at 151 h; in data set [5] (48 mg/kg) it was 171 h.

Take `C=C1CC[C@@]2(O)C3Cc4ccc(OC(=O)CCCCCCCCCCCCCCC)c5c4[C@@]2(CCN3CC2CC2)[C@H]1O5` [Compound 56, (4aS,7aS,12bS)-3-(cyclopropylmethyl)-4a-hydroxy-7-methylene-2,3,4,4a,5,6,7,7a-octahydro-1H-4,12-methanobenzofuro[3,2-e]isoquinolin-9-yl palmitate, reference compound]: in data set [1], the “% remaining at time point in minutes, 0 min” value is given as 100%; the “% remaining … 15 min” value came out at 73.1%; the “% remaining … 120 min” value stood at 56.7%; the “% remaining … 480 min” value turned out to be 35.8%. The “% remaining … 1440 min” value in data set [1] is 16.8%. Further, the “Thermal Gravimetric Analysis, weight loss” value in data set [3] (at 120° C., heated from room temperature at 10° C./minute) was “Weight loss of 0.1815%”.
